Tests used:
[1] = hydrated skin; cited from earlier work
[2] = Skin retention of lactic acid (epidermis and dermis analysis after the permeation study); format: in vitro ADME
Description: (§1) Franz Diffusion Cell Study at Finite Dose
(§2) For each formulation, skin sections were mounted on three or four flat flange Franz diffusion cells (FDC 400) with a diffusional cross-section area of 1.2cm^2. About 60 to 100 mg of test formulation were placed on the stratum corneum surface of the skin in the donor compartment and the receptor compartment was filled with about 11 ml of normal saline. The receptor fluid was well stirred throughout the experiment and the temperature was maintained by circulating water at 37° C. through the water jacket of the diffusion cells. Precisely 500 μl of receptor fluid was collected in a scintillation vial at appropriate intervals for a period of 68 hours. […] The receptor fluid was replenished after each withdrawal. All the receptor fluid and replenished fluids were filtered using a 0.22 μm filter and thoroughly degassed before use.
Cotton swabs were used during the rinsing procedure to recover the remaining surface dose. A circular incision was made in the skin exposed to the formulation. The epidermis at the circular edge was slowly lifted using a pointed flat spatula, and then separated from the dermis using forceps. The epidermis and dermis were transferred to previously weighed teflon tape and dried in a desiccator for 72 hours until a constant weight was obtained. […]

[3] = in vivo; cited from earlier work
[4] = cited from earlier work
[5] = In-vitro skin permeation study of lactic acid, Franz diffusion cell at finite dose (14C-lactic acid); format: in vitro ADME
Description: The skin permeation test was conducted by the following procedure:
In-vitro Skin Permeation Study
as §1, §2

CC(C)NCC(O)COc1cccc2ccccc12 (centres unmarked) [propranolol]
permeation or permeation rate on hydration of skin [1]: decreases the permeation rate by two fold

CC(O)C(=O)O (centres unmarked) [ammonium lactate]
skin retention of lactic acid / α-hydroxy acid (general finding) [2]: excellent lactic acid skin permeation and skin retention profiles
skin retention of lactic acid ([2]; pH 4.6): excellent skin retention
skin irritation [3]: skin irritant to a degree which many patients find unacceptable
potency for other dermatological disorders ([4]; U.S. Pat. No. 5,091,171, topical ammonium salts): lost most of its potency
effectiveness in treating dermatological disorders ([4]; topical): very effective

CC(C)[C@H](N)C(=O)O [valine]
enhancement of skin permeation of lactic acid by valine [5]: does not enhance skin permeation of lactic acid

CCCCCCCCCCCCCC(=O)OC(C)C [IPM, isopropyl myristate]
skin permeation enhancer effect for lactic acid ([5]; FIGS. 1-2, IPM vs PGD in lysine lactate lotions): better skin permeation enhancer for lactic acid than PGD

Source: US5420106A, “Method and composition having enhanced alpha-hydroxy acid skin permeation and retention” (priority 1994, dated 1995)
